What was measured:
[1] = biological target: Gamma-aminobutyric acid receptor subunit alpha-1/alpha-2/beta-2/gamma-2 (Homo sapiens, UniProt P14867+P18507+P47869+P47870); assay type: protein-complex assay
[2] = biological target: Vascular endothelial growth factor receptor 2 (Homo sapiens, UniProt P35968); assay type: functional
[3] = biological target: T1, Alpha-2C adrenergic receptor (Homo sapiens, UniProt P18825); assay type: functional
T1 sequence (P18825 whole entry): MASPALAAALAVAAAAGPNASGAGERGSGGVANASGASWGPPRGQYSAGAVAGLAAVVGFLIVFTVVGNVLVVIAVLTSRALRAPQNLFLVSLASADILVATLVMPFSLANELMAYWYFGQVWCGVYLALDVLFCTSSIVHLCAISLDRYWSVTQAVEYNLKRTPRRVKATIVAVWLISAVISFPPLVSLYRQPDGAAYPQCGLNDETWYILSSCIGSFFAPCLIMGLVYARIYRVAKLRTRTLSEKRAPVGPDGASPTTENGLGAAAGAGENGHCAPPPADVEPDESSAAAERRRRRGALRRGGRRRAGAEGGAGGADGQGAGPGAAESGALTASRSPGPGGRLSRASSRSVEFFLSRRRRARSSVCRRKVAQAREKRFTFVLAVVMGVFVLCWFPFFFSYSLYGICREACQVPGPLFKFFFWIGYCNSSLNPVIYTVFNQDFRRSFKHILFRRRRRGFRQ

Vasopressin V2 receptor = Vasopressin V2 receptor (Homo sapiens, UniProt P30518)
[4] = biological target: T2, Muscarinic acetylcholine receptor M1 (Homo sapiens, UniProt P11229); assay type: functional
T2 sequence (P11229 whole entry): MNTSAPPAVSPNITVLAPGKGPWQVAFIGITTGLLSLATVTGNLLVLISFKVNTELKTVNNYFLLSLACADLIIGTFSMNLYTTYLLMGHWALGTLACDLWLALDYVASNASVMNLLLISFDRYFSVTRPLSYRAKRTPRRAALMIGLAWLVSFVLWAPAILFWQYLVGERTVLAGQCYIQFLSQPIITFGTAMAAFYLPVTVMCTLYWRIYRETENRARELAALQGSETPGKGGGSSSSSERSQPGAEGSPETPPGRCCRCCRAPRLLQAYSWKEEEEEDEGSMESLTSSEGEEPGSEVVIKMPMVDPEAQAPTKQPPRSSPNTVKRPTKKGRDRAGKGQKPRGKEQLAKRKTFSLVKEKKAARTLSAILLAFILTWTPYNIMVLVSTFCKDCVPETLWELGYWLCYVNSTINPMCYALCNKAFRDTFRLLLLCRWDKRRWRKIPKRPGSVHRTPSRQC

[5] = biological target: Gamma-aminobutyric acid receptor subunit alpha-1 (Rattus norvegicus, UniProt P62813); assay type: functional
Gamma-aminobutyric acid receptor subunit alpha-1, sequence (P62813 whole entry): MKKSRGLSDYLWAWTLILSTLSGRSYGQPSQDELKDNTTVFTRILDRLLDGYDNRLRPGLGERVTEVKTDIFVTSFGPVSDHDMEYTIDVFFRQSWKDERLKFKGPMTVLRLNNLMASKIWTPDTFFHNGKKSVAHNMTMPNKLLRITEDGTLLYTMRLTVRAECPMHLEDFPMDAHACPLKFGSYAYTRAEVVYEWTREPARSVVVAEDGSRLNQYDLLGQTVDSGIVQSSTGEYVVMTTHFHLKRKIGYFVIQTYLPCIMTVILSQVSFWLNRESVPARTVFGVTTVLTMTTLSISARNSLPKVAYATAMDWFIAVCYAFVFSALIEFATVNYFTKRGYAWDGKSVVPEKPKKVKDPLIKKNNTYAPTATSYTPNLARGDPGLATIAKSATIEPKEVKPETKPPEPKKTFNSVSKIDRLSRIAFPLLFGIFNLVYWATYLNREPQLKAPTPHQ

[6] = biological target: 5-hydroxytryptamine receptor 2A (Homo sapiens, UniProt P28223); assay type: functional, cell-based
5-hydroxytryptamine receptor 2A, sequence (P28223 whole entry): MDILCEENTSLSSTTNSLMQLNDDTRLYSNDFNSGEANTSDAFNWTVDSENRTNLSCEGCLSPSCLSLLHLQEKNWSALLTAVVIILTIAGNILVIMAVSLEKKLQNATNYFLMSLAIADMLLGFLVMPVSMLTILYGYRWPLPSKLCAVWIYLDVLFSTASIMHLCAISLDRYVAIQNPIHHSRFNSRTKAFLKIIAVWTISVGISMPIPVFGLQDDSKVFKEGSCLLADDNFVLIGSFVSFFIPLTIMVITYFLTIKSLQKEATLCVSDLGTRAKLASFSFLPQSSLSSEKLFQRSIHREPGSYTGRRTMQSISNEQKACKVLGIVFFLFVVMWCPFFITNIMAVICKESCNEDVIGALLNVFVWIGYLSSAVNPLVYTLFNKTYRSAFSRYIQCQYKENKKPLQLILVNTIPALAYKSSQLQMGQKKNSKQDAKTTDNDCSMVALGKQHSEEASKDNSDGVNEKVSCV

Motilin receptor = Motilin receptor (Homo sapiens, UniProt O43193)
Motilin receptor, sequence (O43193 whole entry): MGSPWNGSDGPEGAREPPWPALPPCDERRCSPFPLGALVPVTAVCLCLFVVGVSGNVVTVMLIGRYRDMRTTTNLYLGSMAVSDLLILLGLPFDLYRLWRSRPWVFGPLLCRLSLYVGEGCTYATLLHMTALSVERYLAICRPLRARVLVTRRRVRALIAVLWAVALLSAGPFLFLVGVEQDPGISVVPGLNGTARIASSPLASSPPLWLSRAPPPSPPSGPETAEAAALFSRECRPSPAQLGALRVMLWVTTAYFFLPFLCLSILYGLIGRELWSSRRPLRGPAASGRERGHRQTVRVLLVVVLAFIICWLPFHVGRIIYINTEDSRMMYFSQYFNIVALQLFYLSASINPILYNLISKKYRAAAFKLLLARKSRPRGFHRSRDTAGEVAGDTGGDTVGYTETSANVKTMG

Progesterone receptor = biological target: T3, Progesterone receptor (Homo sapiens, UniProt P06401); assay type: functional
T3 sequence (P06401 whole entry): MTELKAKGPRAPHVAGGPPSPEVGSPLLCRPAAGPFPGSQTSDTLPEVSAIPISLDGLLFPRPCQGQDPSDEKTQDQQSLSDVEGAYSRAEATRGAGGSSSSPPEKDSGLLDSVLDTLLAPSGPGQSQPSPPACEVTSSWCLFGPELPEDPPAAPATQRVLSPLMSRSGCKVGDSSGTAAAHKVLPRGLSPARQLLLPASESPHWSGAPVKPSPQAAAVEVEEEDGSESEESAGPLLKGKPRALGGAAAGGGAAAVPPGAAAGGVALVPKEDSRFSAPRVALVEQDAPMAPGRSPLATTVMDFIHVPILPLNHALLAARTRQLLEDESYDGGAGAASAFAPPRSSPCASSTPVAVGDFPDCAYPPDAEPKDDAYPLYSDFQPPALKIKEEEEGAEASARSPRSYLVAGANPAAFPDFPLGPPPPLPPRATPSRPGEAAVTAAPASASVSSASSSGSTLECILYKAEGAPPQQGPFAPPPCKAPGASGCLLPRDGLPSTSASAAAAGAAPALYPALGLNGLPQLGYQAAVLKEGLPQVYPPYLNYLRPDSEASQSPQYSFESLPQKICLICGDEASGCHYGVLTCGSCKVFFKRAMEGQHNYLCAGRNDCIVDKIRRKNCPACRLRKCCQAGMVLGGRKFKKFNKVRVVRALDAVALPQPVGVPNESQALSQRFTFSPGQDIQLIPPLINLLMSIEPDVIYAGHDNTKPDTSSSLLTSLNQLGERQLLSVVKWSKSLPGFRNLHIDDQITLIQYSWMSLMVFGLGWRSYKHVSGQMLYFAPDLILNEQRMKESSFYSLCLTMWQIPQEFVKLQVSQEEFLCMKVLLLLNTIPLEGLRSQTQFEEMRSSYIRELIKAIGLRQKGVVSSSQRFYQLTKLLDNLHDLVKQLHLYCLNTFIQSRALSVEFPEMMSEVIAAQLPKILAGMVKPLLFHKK

[7] = biological target: T4, Amine oxidase [flavin-containing] A (Homo sapiens, UniProt P21397); assay type: functional
T4 sequence (P21397 whole entry): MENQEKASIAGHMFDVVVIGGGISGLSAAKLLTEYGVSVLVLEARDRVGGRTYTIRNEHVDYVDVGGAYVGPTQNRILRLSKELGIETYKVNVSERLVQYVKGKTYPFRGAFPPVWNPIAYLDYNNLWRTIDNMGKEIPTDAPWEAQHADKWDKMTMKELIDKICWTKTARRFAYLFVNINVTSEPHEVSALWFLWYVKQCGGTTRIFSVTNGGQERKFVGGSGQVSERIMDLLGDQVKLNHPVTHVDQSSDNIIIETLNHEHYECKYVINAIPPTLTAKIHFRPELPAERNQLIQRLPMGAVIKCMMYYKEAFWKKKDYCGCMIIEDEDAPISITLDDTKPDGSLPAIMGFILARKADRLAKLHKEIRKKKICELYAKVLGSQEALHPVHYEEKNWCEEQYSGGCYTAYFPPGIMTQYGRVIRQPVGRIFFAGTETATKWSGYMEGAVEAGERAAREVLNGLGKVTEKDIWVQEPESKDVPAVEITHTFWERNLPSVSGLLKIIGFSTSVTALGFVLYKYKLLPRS
Further: assay procedure not described here.

Gamma-aminobutyric acid receptor subunit alpha-1/alpha-2/beta-2/gamma-2, sequence (P14867 whole entry): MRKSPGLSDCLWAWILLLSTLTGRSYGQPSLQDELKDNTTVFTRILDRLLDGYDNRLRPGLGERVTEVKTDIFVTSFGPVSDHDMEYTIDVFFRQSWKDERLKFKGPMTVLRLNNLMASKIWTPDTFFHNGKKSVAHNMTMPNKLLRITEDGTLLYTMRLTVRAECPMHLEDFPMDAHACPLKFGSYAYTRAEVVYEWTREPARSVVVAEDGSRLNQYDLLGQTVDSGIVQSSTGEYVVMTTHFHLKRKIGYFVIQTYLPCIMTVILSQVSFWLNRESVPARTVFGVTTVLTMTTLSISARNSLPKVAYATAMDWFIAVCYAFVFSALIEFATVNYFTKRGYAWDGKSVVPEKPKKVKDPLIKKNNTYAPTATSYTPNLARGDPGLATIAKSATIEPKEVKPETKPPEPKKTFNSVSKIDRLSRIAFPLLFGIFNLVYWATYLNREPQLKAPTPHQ
Gamma-aminobutyric acid receptor subunit alpha-1/alpha-2/beta-2/gamma-2, sequence (P47870 whole entry): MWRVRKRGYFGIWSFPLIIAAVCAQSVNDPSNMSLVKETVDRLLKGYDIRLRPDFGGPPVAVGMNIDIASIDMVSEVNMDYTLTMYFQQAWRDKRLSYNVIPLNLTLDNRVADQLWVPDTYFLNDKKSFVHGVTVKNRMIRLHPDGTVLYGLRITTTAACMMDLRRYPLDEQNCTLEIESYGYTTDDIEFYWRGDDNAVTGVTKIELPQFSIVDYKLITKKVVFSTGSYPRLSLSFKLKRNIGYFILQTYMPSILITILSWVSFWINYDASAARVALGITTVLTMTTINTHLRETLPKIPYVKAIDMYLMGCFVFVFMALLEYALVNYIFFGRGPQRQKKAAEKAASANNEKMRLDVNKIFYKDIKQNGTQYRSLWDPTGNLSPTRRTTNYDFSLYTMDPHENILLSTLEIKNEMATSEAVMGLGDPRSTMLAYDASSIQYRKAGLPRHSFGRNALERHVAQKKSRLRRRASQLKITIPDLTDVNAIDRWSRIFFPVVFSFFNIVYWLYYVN
Gamma-aminobutyric acid receptor subunit alpha-1/alpha-2/beta-2/gamma-2, sequence (P18507 whole entry): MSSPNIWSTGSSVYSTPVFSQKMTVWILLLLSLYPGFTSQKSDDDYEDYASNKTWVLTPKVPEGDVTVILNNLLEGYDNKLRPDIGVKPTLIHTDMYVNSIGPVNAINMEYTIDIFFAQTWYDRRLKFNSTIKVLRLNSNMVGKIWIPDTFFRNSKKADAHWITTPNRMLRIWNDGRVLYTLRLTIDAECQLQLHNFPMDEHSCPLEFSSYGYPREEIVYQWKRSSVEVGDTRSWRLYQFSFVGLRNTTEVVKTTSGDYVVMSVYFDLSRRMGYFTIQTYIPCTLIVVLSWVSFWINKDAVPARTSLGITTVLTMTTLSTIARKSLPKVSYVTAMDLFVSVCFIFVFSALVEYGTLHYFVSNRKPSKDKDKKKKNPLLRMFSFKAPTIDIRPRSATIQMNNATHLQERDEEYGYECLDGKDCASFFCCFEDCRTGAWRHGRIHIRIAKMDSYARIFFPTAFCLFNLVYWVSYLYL
Gamma-aminobutyric acid receptor subunit alpha-1/alpha-2/beta-2/gamma-2, sequence (P47869 whole entry): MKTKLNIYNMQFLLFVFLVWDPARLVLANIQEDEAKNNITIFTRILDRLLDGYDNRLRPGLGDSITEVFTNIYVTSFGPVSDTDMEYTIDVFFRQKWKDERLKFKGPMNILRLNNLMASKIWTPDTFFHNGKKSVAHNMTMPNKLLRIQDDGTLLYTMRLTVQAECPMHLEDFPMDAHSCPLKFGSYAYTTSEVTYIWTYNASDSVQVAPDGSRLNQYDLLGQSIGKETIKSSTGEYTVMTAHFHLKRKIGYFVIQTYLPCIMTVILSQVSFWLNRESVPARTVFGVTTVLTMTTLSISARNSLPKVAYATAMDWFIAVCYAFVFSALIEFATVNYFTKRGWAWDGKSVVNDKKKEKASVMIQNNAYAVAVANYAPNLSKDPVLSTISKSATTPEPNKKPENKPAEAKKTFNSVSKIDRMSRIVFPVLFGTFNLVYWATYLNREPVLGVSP
Vascular endothelial growth factor receptor 2, sequence (P35968 whole entry): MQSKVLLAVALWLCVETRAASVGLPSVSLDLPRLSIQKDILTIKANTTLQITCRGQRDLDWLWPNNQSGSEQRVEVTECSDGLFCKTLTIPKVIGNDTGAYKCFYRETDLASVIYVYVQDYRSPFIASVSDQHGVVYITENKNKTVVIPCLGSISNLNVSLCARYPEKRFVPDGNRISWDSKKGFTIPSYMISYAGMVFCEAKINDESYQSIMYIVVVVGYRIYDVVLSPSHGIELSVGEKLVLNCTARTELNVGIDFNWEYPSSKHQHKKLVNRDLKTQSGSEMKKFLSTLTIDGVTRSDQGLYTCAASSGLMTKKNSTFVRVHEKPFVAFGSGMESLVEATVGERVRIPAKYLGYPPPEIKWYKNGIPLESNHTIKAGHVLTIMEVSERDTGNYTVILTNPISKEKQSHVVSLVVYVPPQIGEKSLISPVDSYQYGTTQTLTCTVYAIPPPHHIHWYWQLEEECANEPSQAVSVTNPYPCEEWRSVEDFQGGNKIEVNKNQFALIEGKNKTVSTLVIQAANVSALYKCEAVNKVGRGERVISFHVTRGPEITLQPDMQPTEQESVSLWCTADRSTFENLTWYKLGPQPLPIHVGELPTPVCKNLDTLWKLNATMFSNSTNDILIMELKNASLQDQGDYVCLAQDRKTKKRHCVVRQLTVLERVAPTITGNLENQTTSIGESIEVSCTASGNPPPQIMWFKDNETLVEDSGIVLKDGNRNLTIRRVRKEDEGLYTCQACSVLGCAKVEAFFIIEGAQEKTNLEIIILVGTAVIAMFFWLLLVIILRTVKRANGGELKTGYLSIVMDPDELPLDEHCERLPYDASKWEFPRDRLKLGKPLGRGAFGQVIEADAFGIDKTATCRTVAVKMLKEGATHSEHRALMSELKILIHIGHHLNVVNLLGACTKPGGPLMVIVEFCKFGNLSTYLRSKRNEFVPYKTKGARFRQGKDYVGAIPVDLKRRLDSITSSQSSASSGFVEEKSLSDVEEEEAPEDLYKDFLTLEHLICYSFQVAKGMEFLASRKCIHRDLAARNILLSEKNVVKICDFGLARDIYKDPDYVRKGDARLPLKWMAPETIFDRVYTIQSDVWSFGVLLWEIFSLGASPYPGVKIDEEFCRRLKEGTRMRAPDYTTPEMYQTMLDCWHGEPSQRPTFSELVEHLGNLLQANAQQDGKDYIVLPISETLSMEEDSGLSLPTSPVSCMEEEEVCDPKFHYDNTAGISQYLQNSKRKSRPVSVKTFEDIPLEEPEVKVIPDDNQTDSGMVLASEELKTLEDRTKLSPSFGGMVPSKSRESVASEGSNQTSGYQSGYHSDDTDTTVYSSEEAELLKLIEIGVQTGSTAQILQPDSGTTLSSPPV

AC50 [3] [µM] | AC50 (Vasopressin V2 receptor) [µM] | AC50 [4] [µM] | AC50 [5] [µM] | AC50 [6] [µM] | AC50 (Motilin receptor) [µM] | AC50 (Progesterone receptor) [µM] | AC50 [7] [µM] | Compound | AC50 [1] [µM] | AC50 [2] [µM]
 |  |  |  |  |  |  |  | CN(C)c1ccc(C(=C2C=CC(=[N+](C)C)C=C2)c2ccc(N(C)C)cc2)cc1 [GENTIAN VIOLET] | > 3 | 2.97
20 | > 30 | > 30 | > 30 | > 30 | > 30 | > 30 | > 30 | HYDROXOCOBALAMIN |  | 
